Experimental findings from ChEMBL document CHEMBL1201862, “PubChem BioAssay data set” (2004) are described below.

The source made the active and inactive calls.

Test [1] can be described thus: loss of viability in HepG2 cells – cell-based, CellTiter-Glo, cherry-picked, cytotoxicity control for Shn3 inhibitor project, dose response (AID 624134). Type of test: functional. On the technique in general: Cellular ATP, detected with luciferase, serves as a proxy for viable cell number.
A short description of test [2]: non-specific 3'UTR reporter inhibition in Clone20-Shn3RL – cell-based, Renilla luciferase, cherry-picked, counter-screen for Shn3 inhibitor project, dose response (AID 624133). Type of test: functional.
In test [3] the target is T1, Heat shock factor protein 1 (Mus musculus, UniProt P38532).
T1 sequence (P38532 whole entry): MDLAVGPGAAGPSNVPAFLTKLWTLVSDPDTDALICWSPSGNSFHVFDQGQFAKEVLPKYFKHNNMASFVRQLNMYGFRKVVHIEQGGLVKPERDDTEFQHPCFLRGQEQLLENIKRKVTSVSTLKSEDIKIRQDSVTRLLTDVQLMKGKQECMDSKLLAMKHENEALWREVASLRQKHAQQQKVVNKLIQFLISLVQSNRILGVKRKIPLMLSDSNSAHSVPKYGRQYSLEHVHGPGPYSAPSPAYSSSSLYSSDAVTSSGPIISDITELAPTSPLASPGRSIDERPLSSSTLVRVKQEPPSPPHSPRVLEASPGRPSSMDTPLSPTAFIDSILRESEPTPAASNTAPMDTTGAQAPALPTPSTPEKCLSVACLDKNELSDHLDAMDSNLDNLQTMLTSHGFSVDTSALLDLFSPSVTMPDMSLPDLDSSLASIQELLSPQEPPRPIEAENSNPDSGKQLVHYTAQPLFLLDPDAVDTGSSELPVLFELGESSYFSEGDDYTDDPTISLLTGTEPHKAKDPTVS
Kind of test: enhancement of HSF1-driven luciferase signal – cell-based, NIH3T3, luminescence, dose retest, confirmation (AID 435004).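 Also: stress induced by proteasome inhibitor MG132 added 30 min after compound; luciferase reporter driven by HSF1 response element in NIH3T3 cells; actives raise luminescence as potentiators of the MG132 stress response.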 Type of test: functional.

The target in test [4] is Heat shock protein HSP 90-alpha (Homo sapiens, UniProt P07900). The format is functional, organism-based.
The next test addresses T2, Estrogen receptor (Homo sapiens, UniProt P03372).
T2 sequence (P03372 whole entry): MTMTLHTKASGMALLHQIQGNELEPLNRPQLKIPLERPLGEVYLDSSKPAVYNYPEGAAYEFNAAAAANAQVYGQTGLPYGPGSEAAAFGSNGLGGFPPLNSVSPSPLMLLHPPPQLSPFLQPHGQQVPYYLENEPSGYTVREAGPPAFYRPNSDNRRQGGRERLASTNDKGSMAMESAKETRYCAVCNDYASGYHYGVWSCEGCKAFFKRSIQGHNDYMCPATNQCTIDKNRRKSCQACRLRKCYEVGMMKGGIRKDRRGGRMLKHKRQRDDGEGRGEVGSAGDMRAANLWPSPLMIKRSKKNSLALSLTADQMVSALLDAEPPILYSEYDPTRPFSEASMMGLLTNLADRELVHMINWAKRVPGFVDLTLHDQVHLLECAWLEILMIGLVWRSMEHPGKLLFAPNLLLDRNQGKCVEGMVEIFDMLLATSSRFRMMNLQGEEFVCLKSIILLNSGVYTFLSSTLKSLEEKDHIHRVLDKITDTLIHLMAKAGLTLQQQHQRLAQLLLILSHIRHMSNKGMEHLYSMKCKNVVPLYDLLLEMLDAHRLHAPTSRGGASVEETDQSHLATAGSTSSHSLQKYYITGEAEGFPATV

Test [5] concerns the target T3, High affinity choline transporter 1 (Homo sapiens, UniProt Q9GZV3).
T3 sequence (Q9GZV3 whole entry): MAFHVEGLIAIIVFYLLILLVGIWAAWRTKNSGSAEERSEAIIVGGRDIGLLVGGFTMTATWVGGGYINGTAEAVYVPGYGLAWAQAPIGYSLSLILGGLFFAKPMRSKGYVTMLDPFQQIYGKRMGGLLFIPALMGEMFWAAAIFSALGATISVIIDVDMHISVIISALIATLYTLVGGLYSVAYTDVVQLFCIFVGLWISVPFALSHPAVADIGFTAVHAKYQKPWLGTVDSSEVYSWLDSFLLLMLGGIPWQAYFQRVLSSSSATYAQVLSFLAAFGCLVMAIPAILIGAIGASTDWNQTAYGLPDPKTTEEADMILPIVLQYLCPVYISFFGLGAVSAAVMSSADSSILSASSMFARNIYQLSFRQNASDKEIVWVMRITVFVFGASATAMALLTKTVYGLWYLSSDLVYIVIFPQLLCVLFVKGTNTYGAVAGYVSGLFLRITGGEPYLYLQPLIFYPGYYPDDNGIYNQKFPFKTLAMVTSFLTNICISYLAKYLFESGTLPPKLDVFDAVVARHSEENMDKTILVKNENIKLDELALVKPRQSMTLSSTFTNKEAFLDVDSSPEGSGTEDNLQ
Kind of test: human choline transporter blockers, potency – cell-based, 5-point CRC, membrane potential dye, dose response (AID 504840). The format is functional.

A short description of test [6]: reduction of Shn3 3'UTR-driven luciferase in osteoblasts – cell-based, Clone20 osteoblasts, firefly luciferase, cherry-picked, dose response (AID 624132).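 Also: firefly luciferase luminescence from reporter carrying the Shn3 3'UTR in osteoblasts.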 Type of test: functional.
Test [7] addresses T4, Fatty acid synthase (Homo sapiens, UniProt P49327). Kind of test: inhibition of human FAS-TE enzyme activity – biochemical, kinetic fluorescence intensity, dose response (AID 624326).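 Also: rate of fluorescence rise from hydrolysis of a fluorogenic O-methyl fluorescein ester substrate.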 The format is functional.
The target of test [8] is T4, Fatty acid synthase. Kind of test: inhibition of human FAS-TE enzyme activity – biochemical, endpoint fluorescence intensity, uHTS hits, dose response (AID 624327).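 Also: fluorescence from hydrolysis of an O-methyl fluorescein acyl ester substrate by the enzyme.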 The format is functional.
The test system of a further test is INS1. Kind of test: INS-1E survival protection against cytokine death – cell-based, luminescence, retest, dose response (AID 449756).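 Also: cell death triggered by IL-1 beta plus TNF-alpha plus IFN-gamma mixture; protective hits raise ATP signal compared with cytokine alone wells.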 Type of test: functional. The note with it: Rattus norvegicus.
A short description of test [9]: intracellular Trypanosoma cruzi inhibitors in host cells – cell-based, plate reader, cherry-pick samples, set 3, dose response (AID 651818).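 Also: compounds incubated with infected cells for about four days.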 The format is functional.
For a further test, the target named is Genome polyprotein (dengue virus type 2, UniProt P29990). Put plainly: flavivirus cap methylation enzyme inhibition – biochemical, confirmation dose response, primary screen (AID 588689). Type of test: functional.
A short description of test [10]: luciferase reporter signal suppression in cells – H4 neuroglioma cells, luminescence, dose response (AID 1990). Type of test: functional, cell-based. On the technique in general: Reporter assays use an easily measured gene product as a stand-in for the process of interest.
Test [11] addresses Induced myeloid leukemia cell differentiation protein Mcl-1 (Homo sapiens, UniProt Q07820). Type of test: functional.
Another test has as its target Large T antigen (Simian virus 40, UniProt P03070). The format is functional, Betapolyomavirus macacae.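 Also: Confirmatory-stage PubChem screen for compounds that inhibit SV40 T antigen.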
Test [12] is described as follows: Luminescence Cell-Based Dose Response HTS to Identify Inhibitors of 5'UTR Stem-Loop Driven Prion Protein mRNA Translation in H4 Neuroglioblastoma Cells. [Related pubchem assays: 1827 (Project Summary), 1813 (Primary HTS)]. The format is functional.
Test [13] can be described thus: alpha-synuclein stem-loop luciferase translation blockers – H4 neuroglioma cells, luminescence, confirmation (AID 1988). Type of test: functional, cell-based.

T4 sequence (P49327 whole entry): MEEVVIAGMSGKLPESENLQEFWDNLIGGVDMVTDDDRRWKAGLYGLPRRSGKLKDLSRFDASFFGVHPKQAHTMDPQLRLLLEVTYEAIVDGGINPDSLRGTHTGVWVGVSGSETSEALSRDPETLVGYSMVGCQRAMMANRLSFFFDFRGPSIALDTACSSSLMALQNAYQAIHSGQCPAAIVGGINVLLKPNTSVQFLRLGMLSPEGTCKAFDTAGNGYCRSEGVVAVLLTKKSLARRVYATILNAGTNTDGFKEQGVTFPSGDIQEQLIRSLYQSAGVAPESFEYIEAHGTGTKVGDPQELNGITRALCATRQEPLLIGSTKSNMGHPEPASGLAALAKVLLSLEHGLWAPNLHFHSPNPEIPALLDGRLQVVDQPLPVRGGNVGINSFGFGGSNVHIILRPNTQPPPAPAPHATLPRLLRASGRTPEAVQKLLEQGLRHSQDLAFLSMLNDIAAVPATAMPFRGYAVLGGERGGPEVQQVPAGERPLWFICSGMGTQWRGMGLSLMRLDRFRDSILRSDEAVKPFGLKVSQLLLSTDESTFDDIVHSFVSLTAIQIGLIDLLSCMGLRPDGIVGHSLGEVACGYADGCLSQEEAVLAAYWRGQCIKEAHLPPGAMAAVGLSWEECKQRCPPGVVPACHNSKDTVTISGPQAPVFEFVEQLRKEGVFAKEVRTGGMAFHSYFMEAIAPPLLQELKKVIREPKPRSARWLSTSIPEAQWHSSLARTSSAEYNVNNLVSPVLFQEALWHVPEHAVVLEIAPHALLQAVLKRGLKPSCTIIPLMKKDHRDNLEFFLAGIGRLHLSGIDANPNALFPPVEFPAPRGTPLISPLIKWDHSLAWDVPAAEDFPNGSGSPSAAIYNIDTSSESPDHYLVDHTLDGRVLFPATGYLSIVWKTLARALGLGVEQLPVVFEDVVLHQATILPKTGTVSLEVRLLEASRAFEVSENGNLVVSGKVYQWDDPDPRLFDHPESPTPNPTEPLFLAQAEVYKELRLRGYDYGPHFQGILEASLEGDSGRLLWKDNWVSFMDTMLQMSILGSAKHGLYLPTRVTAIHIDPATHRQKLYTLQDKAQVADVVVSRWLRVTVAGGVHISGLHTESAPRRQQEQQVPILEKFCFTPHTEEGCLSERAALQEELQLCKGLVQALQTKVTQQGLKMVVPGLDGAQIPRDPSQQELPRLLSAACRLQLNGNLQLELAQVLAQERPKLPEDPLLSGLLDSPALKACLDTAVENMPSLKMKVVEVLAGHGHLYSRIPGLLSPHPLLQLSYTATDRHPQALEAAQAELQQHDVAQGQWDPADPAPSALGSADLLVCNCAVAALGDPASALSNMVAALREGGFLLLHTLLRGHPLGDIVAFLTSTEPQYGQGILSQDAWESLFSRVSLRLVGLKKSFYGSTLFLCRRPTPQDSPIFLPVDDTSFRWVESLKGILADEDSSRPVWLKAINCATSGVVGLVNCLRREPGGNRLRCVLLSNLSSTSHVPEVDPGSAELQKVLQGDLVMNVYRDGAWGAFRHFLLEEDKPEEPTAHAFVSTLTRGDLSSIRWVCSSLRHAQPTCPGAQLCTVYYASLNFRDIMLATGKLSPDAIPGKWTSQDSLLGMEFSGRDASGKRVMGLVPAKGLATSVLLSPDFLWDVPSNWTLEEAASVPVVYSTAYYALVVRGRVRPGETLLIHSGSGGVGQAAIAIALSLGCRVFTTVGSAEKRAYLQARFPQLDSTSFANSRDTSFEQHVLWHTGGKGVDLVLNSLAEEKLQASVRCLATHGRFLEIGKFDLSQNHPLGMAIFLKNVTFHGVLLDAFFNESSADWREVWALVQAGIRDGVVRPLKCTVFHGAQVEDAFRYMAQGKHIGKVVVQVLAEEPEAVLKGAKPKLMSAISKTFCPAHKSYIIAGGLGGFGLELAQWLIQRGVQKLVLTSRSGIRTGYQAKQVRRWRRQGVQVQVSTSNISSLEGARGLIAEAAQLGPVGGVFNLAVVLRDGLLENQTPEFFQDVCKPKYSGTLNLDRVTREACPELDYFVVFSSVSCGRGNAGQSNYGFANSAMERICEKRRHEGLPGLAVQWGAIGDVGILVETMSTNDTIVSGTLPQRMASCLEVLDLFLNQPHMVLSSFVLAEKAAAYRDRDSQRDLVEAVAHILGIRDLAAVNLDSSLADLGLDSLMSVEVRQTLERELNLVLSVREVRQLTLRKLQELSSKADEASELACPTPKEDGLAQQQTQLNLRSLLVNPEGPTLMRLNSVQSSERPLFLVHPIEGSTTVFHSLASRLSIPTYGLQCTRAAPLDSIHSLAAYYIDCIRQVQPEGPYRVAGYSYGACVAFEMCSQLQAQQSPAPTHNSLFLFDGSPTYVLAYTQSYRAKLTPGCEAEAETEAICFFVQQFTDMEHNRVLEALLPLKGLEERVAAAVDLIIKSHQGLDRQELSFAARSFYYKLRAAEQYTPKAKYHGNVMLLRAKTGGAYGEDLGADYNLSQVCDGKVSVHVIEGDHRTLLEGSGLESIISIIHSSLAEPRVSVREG
Sequence of Genome polyprotein (P29990 2492-3391 limits assumed): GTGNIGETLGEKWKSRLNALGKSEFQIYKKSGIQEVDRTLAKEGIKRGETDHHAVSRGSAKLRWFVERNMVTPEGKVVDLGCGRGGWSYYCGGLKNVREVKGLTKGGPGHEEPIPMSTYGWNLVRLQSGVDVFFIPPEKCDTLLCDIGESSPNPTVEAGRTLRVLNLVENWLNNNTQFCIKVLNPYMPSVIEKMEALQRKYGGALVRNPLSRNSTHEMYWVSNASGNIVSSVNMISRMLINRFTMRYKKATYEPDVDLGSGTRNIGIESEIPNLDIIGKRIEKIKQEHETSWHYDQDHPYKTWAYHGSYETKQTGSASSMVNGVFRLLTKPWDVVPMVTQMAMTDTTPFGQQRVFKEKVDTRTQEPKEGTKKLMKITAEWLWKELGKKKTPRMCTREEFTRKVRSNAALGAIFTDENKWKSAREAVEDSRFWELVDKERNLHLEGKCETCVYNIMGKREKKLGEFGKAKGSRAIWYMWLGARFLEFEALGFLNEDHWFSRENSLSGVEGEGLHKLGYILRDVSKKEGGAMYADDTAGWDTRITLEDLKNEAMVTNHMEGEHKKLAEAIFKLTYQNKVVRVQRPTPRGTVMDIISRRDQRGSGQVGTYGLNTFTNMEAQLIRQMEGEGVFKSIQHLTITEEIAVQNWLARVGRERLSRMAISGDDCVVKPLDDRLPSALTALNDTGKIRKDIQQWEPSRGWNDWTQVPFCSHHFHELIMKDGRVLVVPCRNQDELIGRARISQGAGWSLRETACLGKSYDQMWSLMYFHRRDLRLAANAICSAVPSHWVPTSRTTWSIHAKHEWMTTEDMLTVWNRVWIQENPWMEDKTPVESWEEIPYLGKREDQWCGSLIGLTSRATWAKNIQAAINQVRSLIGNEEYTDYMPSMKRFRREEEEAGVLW
Sequence of Large T antigen (P03070 whole entry): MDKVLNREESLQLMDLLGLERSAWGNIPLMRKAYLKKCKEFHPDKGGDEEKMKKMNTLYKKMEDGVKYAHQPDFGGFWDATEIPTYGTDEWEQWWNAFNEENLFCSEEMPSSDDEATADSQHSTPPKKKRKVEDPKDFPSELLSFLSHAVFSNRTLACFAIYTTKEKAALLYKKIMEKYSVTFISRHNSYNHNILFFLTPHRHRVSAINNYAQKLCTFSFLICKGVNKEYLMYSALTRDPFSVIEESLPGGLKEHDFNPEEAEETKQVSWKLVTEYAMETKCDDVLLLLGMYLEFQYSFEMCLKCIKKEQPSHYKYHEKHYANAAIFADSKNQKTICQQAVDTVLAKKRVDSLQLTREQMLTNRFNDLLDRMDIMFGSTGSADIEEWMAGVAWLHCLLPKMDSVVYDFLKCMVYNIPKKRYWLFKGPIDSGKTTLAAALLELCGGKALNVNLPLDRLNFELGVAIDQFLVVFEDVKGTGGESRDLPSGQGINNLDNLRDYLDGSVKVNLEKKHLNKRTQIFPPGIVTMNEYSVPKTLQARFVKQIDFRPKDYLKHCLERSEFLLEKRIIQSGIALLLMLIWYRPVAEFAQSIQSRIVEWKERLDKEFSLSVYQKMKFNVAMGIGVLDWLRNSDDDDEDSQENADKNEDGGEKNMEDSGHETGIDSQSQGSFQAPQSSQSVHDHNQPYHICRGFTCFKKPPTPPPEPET
Sequence of Induced myeloid leukemia cell differentiation protein Mcl-1 (Q07820 whole entry): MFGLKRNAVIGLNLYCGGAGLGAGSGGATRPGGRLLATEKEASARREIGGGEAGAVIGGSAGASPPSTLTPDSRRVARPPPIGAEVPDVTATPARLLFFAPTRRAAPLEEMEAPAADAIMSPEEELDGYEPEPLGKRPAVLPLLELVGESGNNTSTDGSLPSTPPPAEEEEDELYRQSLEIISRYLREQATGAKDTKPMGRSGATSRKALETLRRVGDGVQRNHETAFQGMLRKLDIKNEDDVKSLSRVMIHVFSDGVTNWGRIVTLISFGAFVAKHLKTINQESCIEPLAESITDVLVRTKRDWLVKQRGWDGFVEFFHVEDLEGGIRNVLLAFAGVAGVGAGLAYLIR

Take `COc1ccc(-c2nnn(CC(=O)Nc3ccc4c(c3)OCCO4)n2)cc1OC`: the AC50 (in general, the midpoint of the concentration-response curve, whichever way the signal moves) in [1] was > 70 µM (inactive); in test [2], 21.2 µM (active).

In the case of `COc1ccccc1NS(=O)(=O)c1cc(C(=O)N2CC(C)CC(C)C2)ccc1C` (stereo not given), the EC50 (commonly the midpoint of the concentration-response curve) in [3] is > 260 µM (inactive). Further, the AC50 in test [4] was 5.54 µM (active).

As to `Cc1ccc(-n2nnnc2SCC(=O)Nc2cccc(NC(=O)c3ccco3)c2)cc1C`, the concentration for half-maximal inhibition (IC50) (usually the point on the concentration scale where inhibition reaches its midpoint) at Estrogen receptor was 14.9 µM (active).

For the molecule `CCC(C)c1ccc(NC(S)=NCc2ccccn2)cc1` (stereo not given), the half-inhibitory concentration (IC50) in test [5] was 13.2 µM (active).

Take `COc1cccc(C2CC(c3ccc(C)cc3)=NN2C(=O)c2ccccc2F)c1OC` (stereo not given): the half-maximal activity concentration (AC50) in [2] was 30.4 µM (active); in [6] it was 36 µM (active).

`CC(C)CCNc1nc(N)c([N+](=O)[O-])c(N2CCCCCC2)n1`: the AC50 in [1] is 47.5 µM (active); in test [2], 5.43 µM (active); in test [6], 8.79 µM (active).

As to `O=c1oc(-c2ccccc2F)nc2scc(-c3ccccc3)c12`, the IC50 on Fatty acid synthase [7] was 0.638 µM (active); at Fatty acid synthase [8], 1.19 µM (active).

With `O=C(/C=C/c1cccc([N+](=O)[O-])c1)NCc1ccc2c(c1)OCO2`, the concentration for half-maximal inhibition (IC50) on Fatty acid synthase [7] was 2.72 µM (active); at Fatty acid synthase [8], 2.33 µM (active).

Regarding `COCCCNC(=O)c1ccc2c(=O)n(Cc3ccc4c(c3)OCO4)c(=S)[nH]c2c1`, the concentration for half-maximal inhibition (IC50) at Estrogen receptor is on record as 42 µM (not active).

With `COc1ccc(CNC(=O)c2cc(-c3cccs3)on2)cc1`, the IC50 on Estrogen receptor is 27.7 µM (active).

With `O=C(Cn1c(=O)n(Cc2ccco2)c(=O)c2c3c(sc21)CCCCC3)c1ccccc1`, at Estrogen receptor, the half-inhibitory concentration (IC50) is listed as > 50 µM (not active).

As for `CCn1c(SCC(=O)Nc2ccc(NC(=O)c3ccco3)c(OC)c2)nc2ccccc2c1=O`, the concentration for half-maximal inhibition (IC50) against Estrogen receptor is reported as 35.8 µM (not active).

On to `CC(C)COc1ccc(C(=O)N/C(=C/c2cccc([N+](=O)[O-])c2)C(=O)O)cc1`, for which the IC50 at Fatty acid synthase [7] is 9.3 µM (active); at Fatty acid synthase [8], 14.2 µM (active).

Take `O=S(=O)(c1ccc(Cl)cc1)N1CCN(c2ncnc3sccc23)CC1`: the AC50 was 32.2 µM (active) in test [1], 5.25 µM (active) in [2], 3.04 µM (active) in [6] and 5.44 µM (active) in the test on INS1.

Turning to `Cc1cc([N+](=O)[O-])c(NCCCCCCO)c([N+](=O)[O-])c1`, the 50% inhibitory concentration (IC50) in test [5] was 12.6 µM (active).

`C[C@H](CO)N1C[C@H](C)[C@@H](CN(C)Cc2ccc(-c3ccccc3)cc2)Oc2c(NC(=O)c3ccncc3)cccc2C1=O`: the AC50 in test [9] was 0.08 µM (active).

As for `F[B-](F)(F)c1cc2cc(Br)ccc2s1`, the AC50 in test [4] is 4.02 µM (active).

In the case of `Cc1cccc(C)c1NC(=O)CN(C)C(=O)c1cccc(S(=O)(=O)N2CCN(c3ccc(F)cc3)CC2)c1`, the AC50 is > 70 µM (inactive) in test [1], 13 µM (active) in test [2] and 2.2 µM (active) in [6].

Turning to `COc1ccc(NS(=O)(=O)c2ccc(C(=O)N3CCCCCC3)cc2)cc1`, the AC50 is 48.4 µM (active) in [1], 9.07 µM (active) in test [2] and 4.51 µM (active) in test [6].

For `O[C@H]1C[C@H](c2ccc(Cl)cc2)N(CC2CCCCC2)C[C@@H]1n1cc(C2CC2)nn1`, the IC50 at Fatty acid synthase [7] is 13.1 µM (active); at Fatty acid synthase [8], 12 µM (active).

In the case of `C[C@@H]1CCCCO[C@@H](CN(C)Cc2ccc(Cl)c(Cl)c2)[C@@H](C)CN([C@H](C)CO)C(=O)c2cc(NC(=O)Cc3ccccc3)ccc2O1`, the AC50 in test [9] was 4.04 µM (active).

For the molecule `COc1ccc(S(=O)(=O)N(C)C[C@H]2Oc3ccc(NC(=O)Nc4cccc5ccccc45)cc3C(=O)N([C@@H](C)CO)C[C@H]2C)cc1`, in test [9], the concentration at half-maximal activity (AC50) was 4.38 µM (active).

With `C[C@@H]1CN([C@@H](C)CO)C(=O)c2cccc(NC(=O)c3nc4ccccc4s3)c2O[C@@H]1CN(C)Cc1ccccc1`, the half-maximal activity concentration (AC50) in test [9] was 4.84 µM (active).

Take `C[C@@H]1CCCCO[C@H](CN(C)C(=O)Nc2ccc(C(F)(F)F)cc2)[C@@H](C)CN([C@H](C)CO)C(=O)c2cc(NC(=O)CCC(F)(F)F)ccc2O1`: in [9], the concentration at half-maximal activity (AC50) was 3.67 µM (active).

As to `C[C@@H]1CCCCO[C@@H](CN(C)Cc2ccc(C(=O)Nc3ccccc3N)cc2)[C@@H](C)CN([C@H](C)CO)C(=O)c2cc(NS(=O)(=O)c3ccc(Cl)cc3)ccc2O1`, in [9], the concentration at half-maximal activity (AC50) was 3.39 µM (active).

Take `C[C@@H]1CN([C@H](C)CO)C(=O)Cc2cc(NC(=O)Nc3ccc4c(c3)OCO4)ccc2O[C@H]1CN(C)CC1CCCCC1`: in test [9], the half-maximal activity concentration (AC50) is 7 µM (active).

On to `C[C@@H]1CN([C@H](C)CO)C(=O)Cc2cc(NS(=O)(=O)c3ccc(Cl)cc3)ccc2O[C@@H]1CN(C)Cc1ccc(-c2ccccc2)cc1`, for which, in test [9], the concentration at half-maximal activity (AC50) is 2.76 µM (active).

On to `C=CCOC(=O)C1=C(C)N=c2s/c(=C3\C(=O)N(CC(=O)O)c4ccccc43)c(=O)n2C1c1ccc(OC)cc1` (stereo not given), for which the IC50 on Genome polyprotein is 59.4 µM (active); in test [11], 3 µM (active); at Large T antigen it was 49.1 µM (active). The EC50 in test [10] is > 120 µM (not active); in test [12], > 120 µM (not active); in test [13] it was 74 µM (active).

As for `CCCCSc1nnc2c(n1)[nH]c1ccccc12`, on Estrogen receptor, the half-maximal inhibitory concentration (IC50) was > 50 µM (not active).
